Data from ChEMBL document CHEMBL2016561 (J Med Chem, 2012).
*1 amine or outer side, *2 acyl side, *3 side chain or, on linkers, in order; H or OH if unused. Where a SMILES comes first, the peptide text is derived from it. [ ]: non-standard residue; d: D form. The star is where a group is joined. X1 = O=C1[C@@H](CCC(=O)[*:2])CCC[C@H]1N[*:1]; Met(O2) = CS(=O)(=O)CC[C@H](N)C(=O)O; Cbz = O=C(OCc1ccccc1)*

Key:
Plasminogen = Plasminogen (Homo sapiens, UniProt P00747); experiment: Inhibition of plasmin by dixon plot method
Plasma kallikrein = Plasma kallikrein (Homo sapiens, UniProt P03952); experiment: Inhibition of plasma kallikrein by dixon plot method
Prothrombin = Prothrombin (Homo sapiens, UniProt P00734); experiment: Inhibition of thrombin by dixon plot method
Coagulation factor X = Coagulation factor X (Homo sapiens, UniProt P00742); experiment: Inhibition of factor 10a by dixon plot method
[1] = target: Vitamin K-dependent protein C (Homo sapiens, UniProt P04070); experiment: Inhibition of activated protein C by dixon plot method
Vitamin K-dependent protein C, sequence (P04070 43-197 limits assumed): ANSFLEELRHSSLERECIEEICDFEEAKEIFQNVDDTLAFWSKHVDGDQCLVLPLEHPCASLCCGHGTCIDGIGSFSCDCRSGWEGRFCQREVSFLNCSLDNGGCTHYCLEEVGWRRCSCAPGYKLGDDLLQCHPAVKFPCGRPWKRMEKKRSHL
Vitamin K-dependent protein C, sequence (P04070 212-461 limits assumed): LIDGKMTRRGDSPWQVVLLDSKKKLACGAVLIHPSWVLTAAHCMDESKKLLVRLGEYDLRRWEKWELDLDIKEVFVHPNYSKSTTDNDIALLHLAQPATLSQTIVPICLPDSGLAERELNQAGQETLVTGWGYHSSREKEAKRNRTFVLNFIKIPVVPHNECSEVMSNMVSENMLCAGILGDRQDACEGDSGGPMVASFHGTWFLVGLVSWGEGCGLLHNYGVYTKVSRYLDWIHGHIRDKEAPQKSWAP

Plasma kallikrein, sequence (P03952 20-390 limits assumed): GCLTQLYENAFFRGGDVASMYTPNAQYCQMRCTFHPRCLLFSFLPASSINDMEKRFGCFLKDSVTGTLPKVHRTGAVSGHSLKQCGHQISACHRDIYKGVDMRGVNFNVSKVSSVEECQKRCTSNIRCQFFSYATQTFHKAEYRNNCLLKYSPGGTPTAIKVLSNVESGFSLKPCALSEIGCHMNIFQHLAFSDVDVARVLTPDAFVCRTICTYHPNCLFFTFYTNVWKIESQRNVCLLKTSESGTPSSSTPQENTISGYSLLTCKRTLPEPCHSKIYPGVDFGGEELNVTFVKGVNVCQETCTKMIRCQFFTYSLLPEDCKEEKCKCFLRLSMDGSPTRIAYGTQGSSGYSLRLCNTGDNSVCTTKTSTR
Plasma kallikrein, sequence (P03952 391-638 limits assumed): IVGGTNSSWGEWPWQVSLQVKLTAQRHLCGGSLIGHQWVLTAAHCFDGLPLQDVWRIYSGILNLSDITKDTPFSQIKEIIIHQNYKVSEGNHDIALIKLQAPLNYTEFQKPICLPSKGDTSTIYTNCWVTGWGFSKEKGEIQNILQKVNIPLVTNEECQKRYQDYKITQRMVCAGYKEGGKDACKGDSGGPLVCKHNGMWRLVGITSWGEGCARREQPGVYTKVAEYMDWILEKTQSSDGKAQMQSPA
Coagulation factor X, sequence (P00742 41-179 limits assumed): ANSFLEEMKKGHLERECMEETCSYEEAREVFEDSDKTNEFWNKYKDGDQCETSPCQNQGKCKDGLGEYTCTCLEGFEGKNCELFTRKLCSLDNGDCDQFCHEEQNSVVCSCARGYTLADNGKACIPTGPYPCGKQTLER
Coagulation factor X, sequence (P00742 235-488 limits assumed): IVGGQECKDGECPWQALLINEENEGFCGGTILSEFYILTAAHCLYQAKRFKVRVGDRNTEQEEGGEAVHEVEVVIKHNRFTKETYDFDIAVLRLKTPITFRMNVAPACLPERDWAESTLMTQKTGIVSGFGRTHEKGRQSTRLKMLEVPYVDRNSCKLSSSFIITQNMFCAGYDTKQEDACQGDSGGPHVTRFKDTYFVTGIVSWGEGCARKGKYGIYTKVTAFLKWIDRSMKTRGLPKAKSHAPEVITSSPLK
Plasminogen, sequence (P00747 97-580 limits assumed): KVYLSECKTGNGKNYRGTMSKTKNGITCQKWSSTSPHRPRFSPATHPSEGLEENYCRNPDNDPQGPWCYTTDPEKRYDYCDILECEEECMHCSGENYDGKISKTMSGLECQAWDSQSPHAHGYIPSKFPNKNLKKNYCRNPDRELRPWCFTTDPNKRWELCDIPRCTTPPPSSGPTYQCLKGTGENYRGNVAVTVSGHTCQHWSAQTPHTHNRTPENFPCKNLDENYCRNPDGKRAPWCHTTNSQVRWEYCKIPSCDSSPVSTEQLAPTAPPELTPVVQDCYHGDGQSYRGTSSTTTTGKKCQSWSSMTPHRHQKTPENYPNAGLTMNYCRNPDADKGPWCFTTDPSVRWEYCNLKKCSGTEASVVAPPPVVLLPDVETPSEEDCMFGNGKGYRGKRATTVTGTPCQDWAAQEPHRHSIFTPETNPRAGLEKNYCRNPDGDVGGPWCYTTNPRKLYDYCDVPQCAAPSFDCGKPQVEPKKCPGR
Plasminogen, sequence (P00747 581-810 limits assumed): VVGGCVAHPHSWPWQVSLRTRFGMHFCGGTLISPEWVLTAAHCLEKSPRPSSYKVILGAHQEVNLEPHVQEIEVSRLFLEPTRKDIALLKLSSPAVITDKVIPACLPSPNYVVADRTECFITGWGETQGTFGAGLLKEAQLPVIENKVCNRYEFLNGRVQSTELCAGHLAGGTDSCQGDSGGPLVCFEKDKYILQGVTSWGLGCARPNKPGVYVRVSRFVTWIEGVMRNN

| SMILES | Ki (Plasminogen) [nM] | Ki (Plasma kallikrein) [nM] | Ki (Prothrombin) [nM] | Ki (Coagulation factor X) [nM] | Ki [1] [nM] |
| --- | --- | --- | --- | --- | --- |
| N=C(N)c1ccc(CNC(=O)[C@@H]2Cc3cn(nn3)Cc3cccc([n+]3[O-])Cn3cc(nn3)C[C@@H](NS(=O)(=O)Cc3ccccc3)C(=O)N2)cc1 | 8.9 | 67 | 1180 | 3120 | > 6000 |
| O=C(CC[C@H]1CCC[C@@H](NC(=O)[C@H](Cc2c[nH]c3ccccc23)NC(=O)[C@H](Cc2c[nH]c3ccccc23)NC(=O)OCc2ccccc2)C1=O)N[C@@H](Cc1c[nH]c2ccccc12)C(=O)N[C@@H](Cc1ccc(O)cc1)C(=O)O (Cbz-WW[X1]WY-OH) | 2700 |  |  |  |  |
| N=C(N)c1ccc(CNC(=O)[C@@H]2Cc3ccc(cc3)CNC(=O)CN3CCN(CC3)CC(=O)NCc3ccc(cc3)C[C@@H](NS(=O)(=O)Cc3ccccc3)C(=O)N2)cc1 |  |  | 3520 |  | 3510 |
| CC(=O)N[C@@H](CCCNC(=N)N)C(=O)N[C@@H](CCS(C)(=O)=O)C(=O)N[C@@H](Cc1ccc(O)cc1)C(=O)N[C@H](C=O)CCCNC(=N)N (Ac-R[Met(O2)]YR-aldehyde) | 3.08 |  |  |  |  |
| N=C(N)c1ccc(CNC(=O)[C@@H]2Cc3cccc(c3)CNC(=O)CN3CCN(CC3)CC(=O)NCc3cccc(c3)C[C@@H](NS(=O)(=O)Cc3ccccc3)C(=O)N2)cc1 |  | 25.3 | 7.2 | 21 | 48 |
| N=C(N)c1ccc(CNC(=O)[C@@H]2Cc3ccc(cc3)OCCCCOc3ccc(cc3)C[C@@H](NS(=O)(=O)Cc3ccccc3)C(=O)N2)cc1 | 1.1 | 19 | 510 | 784 | 4590 |
| N=C(N)NCc1cccc(C[C@H](NC(=O)[C@@H](CCCc2ccccc2)NS(=O)(=O)Cc2cccc(C(=O)O)c2)C(=O)NCc2ccc(C(=N)N)cc2)c1 | 0.81 | 0.075 | 667 | 42 | 0.61 |
| N=C(N)c1ccc(CNC(=O)[C@@H]2Cc3ccc(cc3)CNC(=O)Cc3ccc(cc3)CC(=O)NCc3ccc(cc3)C[C@@H](NS(=O)(=O)Cc3ccccc3)C(=O)N2)cc1 |  |  | 6520 |  | 12000 |
| CCCCCCCCNC(=O)[C@@H](Cc1ccc(OCc2ccncc2)cc1)NC(=O)[C@H]1CC[C@H](CN)CC1 | 530 |  |  |  |  |
| N=C(N)c1ccc(CNC(=O)[C@@H]2Cc3cn(nn3)Cc3cccc(n3)Cn3cc(nn3)C[C@@H](NS(=O)(=O)Cc3ccccc3)C(=O)N2)cc1 |  |  | 6170 |  | 8390 |
| N=C(N)c1ccc(CNC(=O)[C@@H]2CCC(=O)NCc3cccc(c3)CNC(=O)CC[C@@H](NS(=O)(=O)Cc3ccccc3)C(=O)N2)cc1 |  |  | 2020 |  | 5.1 |
| N=C(N)c1ccc(CNC(=O)[C@@H]2Cc3ccc(cc3)OCC=CCOc3ccc(cc3)C[C@@H](NS(=O)(=O)Cc3ccccc3)C(=O)N2)cc1 (mixture of isomers) |  |  | 137 |  | 90 |
| N=C(N)c1ccc(CNC(=O)[C@@H]2Cc3cccc(c3)CNC(=O)Cc3cccc(c3)CC(=O)NCc3cccc(c3)C[C@@H](NS(=O)(=O)Cc3ccccc3)C(=O)N2)cc1 |  |  | 26.8 |  | 223 |
| N=C(N)c1ccc(CNC(=O)[C@@H]2Cc3cccc(c3)CNC(=O)Cc3ccc(cc3)CC(=O)NCc3cccc(c3)C[C@@H](NS(=O)(=O)Cc3ccccc3)C(=O)N2)cc1 |  |  | 45.4 |  | 564 |
| N=C(N)c1ccc(CNC(=O)[C@@H]2Cc3cn(nn3)Cc3cccc(c3)Cn3cc(nn3)C[C@@H](NS(=O)(=O)Cc3ccccc3)C(=O)N2)cc1 |  |  | 9490 |  | 3000 |
